In US20250305953A1, “LIGHT-EMITTING RADICAL CATION PROBE IN SITU GENERATED BY ACID INDUCTION, AND PREPARATION THEREFOR AND APPLICATION THEREOF” (SOUTH CHINA UNIVERSITY OF TECHNOLOGY, priority 2022, published 2025):

Tests used:
[1] = H&E staining and hepatorenal index analysis; format: in vivo, Balb/c nude mice
Protocol: 2 hours after gavage, blood (approximately 500 μL) was collected through the ocular fundus venous plexus and stored in an icebox 20 minutes before centrifugation at 3,500 r.p.m. to prevent clotting. Roche Cobas E602 electrochemical light-emitting immunoassay analyzer was used to test and analyze total protein (TP), albumin (ALB), alanine aminotransferase (ALT), aspartate aminotransferase (AST), creatinine (CREA), carbon dioxide (CO2), uric acid (UA), urea (UREA) in serum samples (200 μL).
All tissues were fixed with 4% PFA, dehydrated with an ethanol solution, embedded with paraffin, and cut into […] coronal and low-temperature sections for hematoxylin and eosin (H&E) staining. Paraffin was removed by xylene washing. Then, the sections were incubated with hematoxylin and eosin for 4 min and washed with distilled water. Stained sections were examined by using the Nikon ECLIPSE 80i microscope.

[2] = In vivo imaging with laparotomy; parameters: species or system Balb/c nude mice; conditions: dissected after imaging
From the text: The mice were anesthetized beforehand, and the gastrointestinal tract was then exposed by a single incision in the abdomen of the mice.

[3] = Protocol: 30 μL of DMSO stock solution (200 mM) of the compound P6 (4-(piperidine-1-methylene)-2,5-dimethyl-3-hydroxymethylene-^1H-pyrrole) was added to 2970 μL of the acidic buffer solution (pH=2.0-3.0).
After being mixed well, tests of the time-dependent ultraviolet-visible absorption spectrum and fluorescence spectrum were performed (2 h).

[4] = compared with P3^⋅+

biocompatibility ([1]; generated in situ in the stomach, conclusion) | fluorescence of visceral organs other than the gastrointestinal tract [2] | Compound | H&E histology of major visceral organs (stomach, liver, spleen, kidney, lung, heart) ([1]; 2 hours after gavage of 1.5 mg in 70 μL water, compared with control group) | time for conversion into the radical cation ([3]; acidic buffer solution pH=2.0-3.0, atmosphere of air) [min] | conversion efficiency ([3]; compared with P3) | light emission ([3]; compared with P3) | gastrointestinal imaging effect [4]
good biocompatibility | without any fluorescence signal | Cc1cc(CO)c(C)n1-c1ccccc1 [P3, 2,5-dimethyl-3-hydroxymethylene-1-phenyl-^1H-pyrrole] | no obvious injury or inflammatory lesion | – | – | – | –
– | – | Cc1[nH]c(C)c(CN2CCCCC2)c1CO [P6, 4-(piperidine-1-methylene)-2,5-dimethyl-3-hydroxymethylene-^1H-pyrrole] | – | ≤ 30 | lower conversion efficiency | weaker light emission | not as good as that of P3^⋅+
